The values below come from patent US20170007675A1, “STABLE PEPTIDE FORMULATIONS AND METHODS FOR PREPARATION” (XERIS PHARMACEUTICALS, INC., priority 2014, published 2017).

The conditions of this data set: 0.9 mg/mL in neat DMSO; 40° C.; six weeks; N=3.

Method: Sample solutions (N=3) were prepared by solubilizing the lyophilized powder directly in neat DMSO to a concentration of 0.9 mg/mL pramlintide acetate. To test formulation stability in the polar aprotic solvent, the samples (N=3) were stored in sealed glass vials at 40° C. for six weeks.

For the substance Pramlintide acetate, the “appearance of sample solutions after storage” value is “clear and absent of precipitation and visible aggregates”.
